Experiment [1] deals with rats with tightly ligated L5, L6 spinal nerves (tactile allodynia). The experiment can be described thus: b) In vivo experiments according to Chung (anti-allodynic testing, single dose combinations vs sum of single effects). Details: species or system rat. The conditions noted are these: 30 min, ± SEM. An excerpt:
The left L5 and L6 spinal nerves were exposed by removing a small piece of the paravertebral muscle and a part of the left spinous process of the L5 lumbar vertebra. The L5 and L6 spinal nerves were then carefully isolated and tightly ligated with silk (NC-silk black, USP 5/0, metric 1, Braun Melsungen AG, Melsungen, FRG). After checking hemostasis, the muscle and the adjacent fascia were closed with sutures and the skin was closed with sutures.
After operation, animals were allowed to recover for one week. Animals develop tactile allodynia which is stable for at least five weeks. For the assessment of tactile allodynia the rats were placed on a metal mesh covered with a plastic dome and were allowed to habituate until the exploratory behaviour diminished. Threshold for tactile allodynia was measured with an electronic von Frey anesthesiometer (Somedic, Sweden). Animals randomly assigned to groups of 10 for each test dose and vehicle, were tested 0.5 h before administration and on several time points after administration. The median of the withdrawal threshold for each animal at a given time is calculated from five individual stimulations with the electronic von Frey filament. Withdrawal thresholds of the injured paws are expressed as % maximal possible effect (% MPE) comparing predrug threshold of Chung-animals (=0% MPE) and control threshold of sham-animals (=100% MPE). A cut-off is set at 100% MPE. The effect of each compound and vehicle is calculated for each testing time point (e.g. 0.5, 1, 3 h post administration) as interindividual % MPE value (±SEM). Anti-allodynic efficacy is defined as increase of ipsi-lateral withdrawal threshold without effect on contra-lateral withdrawal threshold. Ten animals have been used in each group.
Effects of drug combinations are compared to the theoretical sum of the effects of each drug tested alone.

Experiment [2] concerns inflamed rat hind paw (carrageenan). Briefly: c) In vivo experiments according to Randall-Selitto (carrageenan inflammatory pain, mechanical nociceptive threshold; isobolographic analysis. As to conditions: peak effect 15 min p. appl., interval in brackets; for ED50: Rattus norvegicus, 0.25 h. As for the experimental part:
The weight ratios of the components (a) and (b) that will lead to a supra-additive effect (synergistic effect) of the inventive pharmaceutical composition may be determined via the test of Randall and Selitto as described in Arch. Int. Pharmacodyn., 1957, 111, 409 to 419, which is a model for inflammatory pain. The respective part of the literature is hereby incorporated by reference and forms part of the present disclosure.
Acute inflammation is induced by an intraplantar injection of 0.1 ml of a carrageenan solution (0.5% in distilled water) into one hind paw. The mechanical nociceptive threshold is measured 4 hours after carrageenan injection using an Algesiometer (Ugo Basile, Italy). The device generates a mechanical force with a linear increase over time. The force is applied to the dorsal surface of the inflamed rat hind paw via a cone-shaped stylus with a rounded tip (2 mm tip diameter). The nociceptive threshold is defined as the force (in grams) at which the rat vocalises (cut-off force 250 g). The mechanical nociceptive threshold is measured at different timepoints after the drug or vehicle administration. The antinociceptive and antihyperalgesic activity of the tested substance is expressed as percentages of the maximal possible effect (% MPE). The group size is n=10.
The interactions studies presented herein were performed using equieffective doses of the two components, calculated from the ratio of the respective ED50 values of the components if administered alone.
The route of administration was intravenous (i.v.) for Tapentadol hydrochloride (A) and intraperitoneal (i.p.) for the anticonvulsants (antiepileptics) Lamotrigine, Lacosamide, Levetiracetam and Retigabine dihydrochloride. […] According to their respective timepoint of peak effect, A was applied 15 min and the anticonvulsant component 15 min before timepoint of measurement of the interaction-experiments (i. e. both components were applied simultaneously). Thus, the time point of ED50 calculation of the combination corresponds to the timepoint of the peak effect of the respective compound.

In experiment [3] the test system is male Sprague-Dawley rats with ligated left L5/L6 spinal nerves (tactile allodynia). Briefly: In vivo experiments according to Chung (spinal nerve ligation, tactile allodynia, electronic von Frey; isobolographic analysis). On the set-up: species or system rat. The conditions noted are these: for contra-lateral paw withdrawal threshold, anti-nociceptive effect: 10 mg/kg i.v.; for ED50 (95% confidence interval), anti-allodynic efficacy, single substance / efficacy, increase in the withdrawal threshold of the ipsi-lateral hind paw: i.v.; for ED50 (95% confidence interval), anti-allodynic efficacy, single substance: calculated from peak effect vs. control values at 30 min after administration; for efficacy, increase in the withdrawal threshold of the ipsi-lateral hind paw: maximal efficacy over the doses tested (combination: highest dose 1 mg/kg+2.5 mg/kg), peak effect 30 min after administration. An excerpt:
The weight ratios of components (a) and (b) that will lead to a supra-additive effect/synergistic effect of the inventive compositions may be determined in the test of Kim & Chung as described in Kim S H, Chung J M. An experimental model for peripheral mononeuropathy produced by segmental spinal nerve ligation in the rat. Pain 1992; 50: 355-63. Said reference is hereby incorporated by reference and forms part of the disclosure.
Ligatures were applied to the left L5/L6 spinal nerves of male Sprague-Dawley rats (140-160 g body weight, Janvier, Genest St. Isle, France). […] Three to four weeks after the operation the tactile allodynia threshold baseline (withdrawal threshold) was measured on the ipsilateral and contralateral hind paw by an electronic von Frey anaesthesiometer (Somedic, Schweden). After test and measurement of the baseline, (1R,2R)-3-(3-dimethylamino-1-ethyl-2-methyl-propyl)-phenol hydrochloride (hereinafter referred to as tapentadol hydrochloride or tapentadol-HCl), (S)-pregabalin as well as the inventive combination of tapentadol-HCl and (S)-pregabalin were each dissolved in 0.9% NaCl solution and injected by the intravenous (i.v.) route (application volume 5 ml/kg). Animals were randomly assigned to groups of 10 for each test dose and vehicle (0.9% NaCl solution) and tactile withdrawal thresholds were tested 0.5 h before administration and on several time points (0.5, 1 and 3 hours) after intravenous administration. Ipsi- and contralateral hindpaws were tested. The median of the withdrawal threshold for each animal at a given time is calculated from five individual stimulations with the electronic von Frey filament. Withdrawal thresholds of the injured paws are expressed as % MPE (Maximum possible effect) comparing predrug threshold of Chung-Animals (=0% MPE) and control threshold of sham-animals (100% MPE). A cut-off is set at 100% MPE. The effect of each compound and vehicle is calculated for each testing time point as interindividual % MPE value.
Data (anti-allodynic efficacy (% MPE), ipsi-lateral, paw withdrawal threshold (g), ipsi- and conralateral) were analysed by means of a two-factor analysis of variance (ANOVA) with repeated measures. In case of a significant treatment effect, post hoc analysis with Bonferroni adjustment was performed. Results were considered statistically significant if P<0.05.

[4] abbreviates: ip, i.p., read-out: ED50 of the anticonvulsant applied alone.
The mark [5] stands for this setting: ip, read-out: ED50 of the anticonvulsant applied alone, i.p.

The source of these data is patent publication US10206890B2, “Pharmaceutical combination” (priority 2008, dated 2019).

In general, ED50 refers to the midpoint of the dose-response relation.

Values joined by “and” are separate entries in the source; they are usually repeats but may differ in a detail not shown here. Equal entries are not always repeated. Structures can show the parent of a compound that is named as a salt. Where two headings read alike, the source gives them in different places.

`CC[C@@H](c1cccc(O)c1)[C@@H](C)CN(C)C` [Tapentadol hydrochloride, (1R,2R)-3-(3-dimethylamino-1-ethyl-2-methyl-propyl)-phenol hydrochloride]: the “Effect % MPE (time after administration of Tapentadol hydrochloride)” value (“Effect % MPE” for short) in experiment [1] (single substance 1 mg/kg iv, hydrochloride) was 18 ± 4% (30 min) % MPE and 13 ± 5% (30 min) % MPE. Besides, in experiment [2] (iv, read-out: ED50 of A (Tapentadol hydrochloride) applied alone, i.v.), the ED50 stood at 1.75 mg/kg. The “ED50 of A (Tapentadol hydrochloride) applied alone” value in experiment [2] (i.v., listed as A, hydrochloride) is 1.747 mg/kg and 1.749 mg/kg. Also, in experiment [3], the “contra-lateral paw withdrawal threshold, anti-nociceptive effect” value is on record as “significant anti-nociceptive effects”; the “ED50 (95% confidence interval), anti-allodynic efficacy, single substance” value is given as 1.65 (1.20-2.35) mg/kg i.v; the “efficacy, increase in the withdrawal threshold of the ipsi-lateral hind paw” value is recorded as 94 % MPE.

In the case of `Nc1nnc(-c2cccc(Cl)c2Cl)c(N)n1` [Lamotrigine], the ED50 in experiment [2] (setting [4]) is 35.3 mg/kg. The “ED50 of the anticonvulsant applied alone” value in experiment [2] (i.p.) amounted to 35.25 mg/kg.

In the case of `NCC1(CC(=O)O)CCCCC1` [Gabapentin], the “Effect % MPE” value in experiment [1] (single substance 10 mg/kg iv (20 min before Tapentadol hydrochloride time point)) was 3 ± 3% (30 min) % MPE.

For `CC[C@@H](C(N)=O)N1CCCC1=O` [Levetiracetam], the “Effect % MPE” value in experiment [1] (single substance 20 mg/kg iv) is recorded as 16 ± 4% (30 min) % MPE. The ED50 in experiment [2] (setting [4]) turned out to be 986 mg/kg.

Turning to `CCOC(=O)Nc1ccc(NCc2ccc(F)cc2)cc1N` [Retigabine dihydrochloride], the ED50 in experiment [2] (setting [5]) came out at 5.09 mg/kg.

`CC(C)C[C@H](CN)CC(=O)O` [(S)-pregabalin]: in experiment [3], the “contra-lateral paw withdrawal threshold, anti-nociceptive effect” value was “significant anti-nociceptive effects”; the “ED50 (95% confidence interval), anti-allodynic efficacy, single substance” value was 4.20 (3.37-5.43) mg/kg i.v; the “efficacy, increase in the withdrawal threshold of the ipsi-lateral hind paw” value stood at 67 % MPE.

Consider `CC1(C)O[C@@H]2[C@@H](CO[C@@]3(COS(N)(=O)=O)OC(C)(C)O[C@@H]23)O1` [Topiramate], for which the “Effect % MPE” value in experiment [1] (single substance 1 mg/kg iv) is on record as 22 ± 3% (30 min) % MPE.

Turning to `COC[C@@H](NC(C)=O)C(=O)NCc1ccccc1` [Lacosamide], in experiment [1] (single substance 3 mg/kg iv), the “Effect % MPE” value was 24 ± 4% (30 min) % MPE. Further, the median effective dose (ED50) in experiment [2] (setting [5]) is 35.9 mg/kg.
